Data published in patent US20250134855A1, “CO[…] AND METHODS OF USING SAME” (LYKOS THERAPEUTICS, INC., priority 2022, published 2025).

Columns and labels:
[1] = test system: participants with PTSD of moderate or greater severity; test: MAPP2 Phase 3: Sheehan Disability Scale (SDS); type: in vivo, human
Excerpt: FIG. 36 and FIG. 37 show the time course of improvement in Clinician Administered PTSD Scale for DSM-5 (CAPS-5) total severity score versus placebo. Each show a treatment difference between MDMA and placebo after 3 medication sessions with psychological intervention. […] Between the second and third treatment sessions, the difference between the groups appeared to continue to increase in both studies. The primary efficacy measure was change from baseline in the CAPS-5 total severity score at 18 weeks, which was evaluated 2 months after the final dosing session. The CAPS-5 is a 30-item, clinician-rated scale used to assess severity of PTSD symptoms and diagnostic status according to DSM-5 criteria, as described herein. Scores on the CAPS 5 range from 0 to 80, with higher scores indicating more severe PTSD symptoms. In both studies, a secondary efficacy measure was change from baseline in Sheehan Disability Scale (SDS) mean item scores at 18 weeks. The modified SDS is a 3-item, clinician-rated scale measuring the degree of functional impairment in work, family, and social life. Scores on the SDS mean items range from 0 to 10, with higher scores indicating more functional impairment. In these studies, the efficacy assessments were administered by blinded independent raters 18 to 30 days after medication sessions 1 and 2.
MAPP2 was a Phase 3 randomized, placebo-controlled, 2-arm, double-blind, multi-site study conducted to investigate the efficacy and safety of MDMA-AT in participants with PTSD of moderate or greater severity. This study included 3 experimental sessions of therapy combined with either MDMA or placebo. During Experimental Session 1, participants received a split dose of 120 mg (80 mg+40 mg). Participants received an escalated split dose of 180 mg during Experimental Sessions 2 and 3 unless there were tolerability issues or the participant declined.
The primary outcome measure, the CAPS-5, evaluated changes in PTSD symptom severity and the secondary outcome measure, the SDS, evaluated changes in functional impairment. Both measures were assessed by a blinded centralized language-specific IR pool.
The de jure estimand of treatment efficacy was used to determine the effect of MDMA-AT on SDS total score in the mITT analysis set.

[2] = test system: MDMA-AT trial participants (MAPP1 and MAPP2); test: MPLONG long-term follow-up: CAPS-5 durability, responder analysis, relapse; type: in vivo, human
Excerpt: MPLONG is an observational long-term follow-up study for MDMA-AT trial participants intended to provide data on treatment durability as measured by the CAPS-5 and Sheehan Disability Scale (SDS). Participants who elect to enroll in MPLONG completed a LTFU visit at least 6 months following their completion of the parent study. MPLONG opened for enrollment 8 months following the last subject visit of the MAPP1 trial and MAPP1 participants entered MPLONG unblinded to their treatment assignment. Enrollees from the second Phase 3 trial MAPP2, however, complete LTFU with blinding maintained.
A sensitivity analysis was conducted to determine whether there was a detectable difference in the observed trend dependent on the time elapsed since the parent study (Table 47 (Table 47 (Table 47). There was no observable impact of the time window, as durability was maintained in both those with LFTU within a year and those with LTFU greater than 12 months after study termination.

[3] = single 100 mg dose of MDMA (Segura 2005); cited from earlier work
[4] = test system: human Caco-2 cells; test: Caco-2 permeability
[5] = target: BCRP (Homo sapiens, UniProt Q9UNQ0); test: Transporter inhibition, BCRP; conditions: not told
[6] = target: human ether-à-go-go-related gene (hERG) potassium current (Homo sapiens, UniProt Q12809); test: hERG potassium current inhibition
[7] = MAPP2, mITT, Baseline (Visit 3)
[8] = MAPP2, mITT, Baseline to Visit 19
[9] = MAPP2, mITT, Visit 19 (Primary Endpoint)
[10] = end of treatment, 52 patients (study not given)
[11] = LTFU visit, MAPP1 and MAPP2, loss of diagnosis at study termination and ≥10 point increase and meeting PTSD diagnostic criteria at LTFU
[12] = LTFU visit, MAPP1 and MAPP2, remission at study termination and >11 CAPS-5 TSS at LTFU
[13] = LTFU visit, MAPP1 and MAPP2, ≤11 CAPS-5 TSS from BL not meeting PTSD diagnostic criteria at LTFU
[14] = LTFU visit, MAPP1 and MAPP2, ≥10 point reduction in CAPS-5 TSS from BL and ≥10 point increase from study termination at LTFU
[15] = LTFU visit, MAPP1 and MAPP2, ≥10 pt reduction in CAPS-5 TSS from BL and not meeting PTSD diagnostic criteria at LTFU
[16] = LTFU visit, MAPP1 and MAPP2, ≥10 pt reduction in CAPS-5 TSS from BL at study termination and LTFU
[17] = MAPP1 and MAPP2, LTFU 6-12 Months
[18] = MAPP1 and MAPP2, LTFU >12 Months
[19] = MAPP1 and MAPP2, Study Termination (last available assessment in parent study)
[20] = MAPP2 participants only, Long Term Follow Up Study Visit 1
[21] = MPLONG, MAPP1 and MAPP2 participants, Visit 1
[22] = MPLONG, MAPP1 and MAPP2 participants, parent study Baseline
[23] = MPLONG, MAPP1 and MAPP2 participants, parent study Visit 8
[24] = MPLONG, MAPP1 and MAPP2 participants, parent study Visit 13
[25] = MPLONG, MAPP1 and MAPP2 participants, parent study Visit 19
[26] = MPLONG, MAPP2 participants only, parent study Baseline
[27] = MPLONG, MAPP2 participants only, parent study Visit 8
[28] = MPLONG, MAPP2 participants only, parent study Visit 13
[29] = MPLONG, MAPP2 participants only, parent study Visit 19

Sequence of human ether-à-go-go-related gene (hERG) potassium current (Q12809 whole entry): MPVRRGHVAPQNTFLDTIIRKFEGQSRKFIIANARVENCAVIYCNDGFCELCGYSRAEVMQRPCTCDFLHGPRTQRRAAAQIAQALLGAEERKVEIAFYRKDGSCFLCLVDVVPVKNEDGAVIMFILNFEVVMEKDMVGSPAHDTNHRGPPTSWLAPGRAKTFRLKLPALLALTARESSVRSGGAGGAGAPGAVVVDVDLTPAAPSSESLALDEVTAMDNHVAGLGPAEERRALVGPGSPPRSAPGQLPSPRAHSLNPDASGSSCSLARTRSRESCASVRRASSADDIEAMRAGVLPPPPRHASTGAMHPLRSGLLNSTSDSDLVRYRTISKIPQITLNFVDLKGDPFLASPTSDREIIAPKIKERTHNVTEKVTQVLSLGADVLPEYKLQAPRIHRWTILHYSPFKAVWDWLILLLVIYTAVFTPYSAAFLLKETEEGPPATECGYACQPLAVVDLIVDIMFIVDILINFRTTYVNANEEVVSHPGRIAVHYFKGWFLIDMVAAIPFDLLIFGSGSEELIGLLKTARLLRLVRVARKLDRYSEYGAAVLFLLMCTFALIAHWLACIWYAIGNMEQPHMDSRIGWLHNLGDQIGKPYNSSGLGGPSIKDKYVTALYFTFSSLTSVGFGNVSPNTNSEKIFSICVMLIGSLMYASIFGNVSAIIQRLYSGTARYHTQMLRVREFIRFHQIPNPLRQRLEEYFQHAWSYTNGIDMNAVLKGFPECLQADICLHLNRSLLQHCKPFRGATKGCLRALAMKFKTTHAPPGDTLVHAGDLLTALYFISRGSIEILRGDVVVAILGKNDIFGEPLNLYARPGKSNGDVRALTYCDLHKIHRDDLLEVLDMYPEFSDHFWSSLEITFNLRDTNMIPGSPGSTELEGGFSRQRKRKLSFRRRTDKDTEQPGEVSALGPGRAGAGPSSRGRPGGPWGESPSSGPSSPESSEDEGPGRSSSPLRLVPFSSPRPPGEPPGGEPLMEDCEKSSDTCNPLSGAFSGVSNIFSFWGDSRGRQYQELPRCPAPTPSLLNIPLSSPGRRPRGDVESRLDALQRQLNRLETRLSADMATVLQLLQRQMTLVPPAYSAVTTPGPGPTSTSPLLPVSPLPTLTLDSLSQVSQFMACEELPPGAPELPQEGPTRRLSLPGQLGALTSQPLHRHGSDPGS
Sequence of BCRP (Q9UNQ0 whole entry): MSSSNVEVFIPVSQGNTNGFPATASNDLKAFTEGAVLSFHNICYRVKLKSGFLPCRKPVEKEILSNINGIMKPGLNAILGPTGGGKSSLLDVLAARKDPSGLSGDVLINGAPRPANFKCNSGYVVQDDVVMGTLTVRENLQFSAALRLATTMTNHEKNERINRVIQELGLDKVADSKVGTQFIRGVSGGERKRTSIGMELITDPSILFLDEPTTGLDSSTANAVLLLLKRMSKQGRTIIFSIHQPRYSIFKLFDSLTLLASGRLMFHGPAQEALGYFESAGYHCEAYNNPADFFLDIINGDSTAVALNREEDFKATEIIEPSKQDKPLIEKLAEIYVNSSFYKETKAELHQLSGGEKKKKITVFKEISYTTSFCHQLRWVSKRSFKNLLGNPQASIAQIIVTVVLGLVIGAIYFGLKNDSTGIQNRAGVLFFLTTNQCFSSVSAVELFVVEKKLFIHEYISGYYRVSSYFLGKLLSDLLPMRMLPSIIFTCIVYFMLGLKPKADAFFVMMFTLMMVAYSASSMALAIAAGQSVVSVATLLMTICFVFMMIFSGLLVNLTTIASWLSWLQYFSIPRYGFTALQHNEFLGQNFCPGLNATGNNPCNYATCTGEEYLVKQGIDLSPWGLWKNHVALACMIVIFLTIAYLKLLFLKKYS

CNC(C)Cc1ccc2c(c1)OCO2 (stereo not shown) [MDMA, 3,4-methylenedioxymethamphetamine]
SDS Total Score CFB, LSMean ([1]; MAPP2, mITT, MMRM, Visit 19): −3.31 | SDS Total Score CFB, LSMean for Treatment Difference ([1]; MAPP2, mITT, MMRM, vs placebo with therapy, Visit 19): −1.20 | SDS Total Score, Mean [1, 7]: 6.0 | SDS Total Score, Median [1, 7]: 6.3 | SDS Total Score CFB, Mean [1, 8]: −3.3 | SDS Total Score CFB, Median [1, 8]: −4.0 | SDS Total Score, Mean ([1]; MAPP2, mITT, Visit 8): 4.1 | SDS Total Score, Median ([1]; MAPP2, mITT, Visit 8): 4.3 | SDS Total Score, Mean ([1]; MAPP2, mITT, Visit 13): 2.9 | SDS Total Score, Median ([1]; MAPP2, mITT, Visit 13): 2.7 | SDS Total Score, Mean [1, 9]: 2.7 | SDS Total Score, Median [1, 9]: 2.3 | reduction in SDS total scores ([1]; MAPP2, MMRM, de jure estimand, mITT): −3.31 | SDS Remission (SDS mean item score < 3) [1, 10]: (55.8) % | SDS Remission (SDS mean item score < 3), n [1, 10]: 29 | SDS Responder (4 point or greater reduction from baseline SDS mean item score) [1, 10]: (53.8) % | SDS Responder (4 point or greater reduction from baseline SDS mean item score), n [1, 10]: 28 | Relapse after Loss of Diagnosis, Does not meet criteria, % [2, 11]: (93.8) % | Relapse after Loss of Diagnosis, Meets criteria, % [2, 11]: (6.2) % | Relapse of Remission, Does not meet criteria, % [2, 12]: (95.4) % | Relapse of Remission, Meets criteria, % [2, 12]: (4.6) % | Durable Remission, Does not meet criteria, % [2, 13]: (40.0) % | Durable Remission, Meets criteria, % [2, 13]: (60.0) % | Relapse after Treatment Response, Does not meet criteria, % [2, 14]: (93.8) % | Relapse after Treatment Response, Meets criteria, % [2, 14]: (6.2) % | Durable Loss of Diagnosis, Does not meet criteria, % [2, 15]: (16.9) % | Durable Loss of Diagnosis, Meets criteria, % [2, 15]: (83.1) % | Durable Treatment Response, Does not meet criteria, % [2, 16]: (10.8) % | Durable Treatment Response, Meets criteria, % [2, 16]: (89.2) % | loss of diagnosis at LTFU ([2]; MAPP1 and MAPP2): 83.1% | met the definition of treatment response at LTFU ([2]; MAPP1 and MAPP2): 89.2% | relapse following remission ([2]; MAPP1 and MAPP2): 4.6% | relapse following treatment response or loss of diagnosis ([2]; MAPP1 and MAPP2): 12.3% | remission at LTFU ([2]; MAPP1 and MAPP2): 60% | CAPS-5 Total Severity Score, Actual, Mean [2, 17]: 11.9 | CAPS-5 Total Severity Score, Actual, Median [2, 17]: 9.0 | CAPS-5 Total Severity Score, Change from Study Termination, Mean [2, 17]: −3.7 | CAPS-5 Total Severity Score, Change from Study Termination, Median [2, 17]: −2.5 | CAPS-5 Total Severity Score, Actual, Mean [2, 18]: 11.2 | CAPS-5 Total Severity Score, Actual, Median [2, 18]: 6.0 | CAPS-5 Total Severity Score, Change from Study Termination, Mean [2, 18]: −5.9 | CAPS-5 Total Severity Score, Change from Study Termination, Median [2, 18]: −5.0 | CAPS-5 Total Severity Score, Actual, Mean [2, 19]: 16.4 | CAPS-5 Total Severity Score, Actual, Median [2, 19]: 15.0 | mean change from baseline (CFB) in CAPS-5 scores at LTFU ([2]; MAPP2 parent study): −28.7 | CAPS-5 Total Severity Score, Actual, Mean [2, 20]: 10.7 | CAPS-5 Total Severity Score, Actual, Median [2, 20]: 8.5 | CAPS-5 Total Severity Score, CFB, Mean [2, 20]: −28.7 | CAPS-5 Total Severity Score, CFB, Median [2, 20]: −30.5 | CAPS-5 Total Severity Score, Actual, Mean [2, 21]: 11.5 | CAPS-5 Total Severity Score, Actual, Median [2, 21]: 8.0 | CAPS-5 Total Severity Score, CFB, Mean [2, 21]: −29.2 | CAPS-5 Total Severity Score, CFB, Median [2, 21]: −31.0 | CAPS-5 Total Severity Score, Actual, Mean [2, 22]: 40.8 | CAPS-5 Total Severity Score, Actual, Median [2, 22]: 40.0 | CAPS-5 Total Severity Score, Actual, Mean [2, 23]: 29.5 | CAPS-5 Total Severity Score, Actual, Median [2, 23]: 31.0 | CAPS-5 Total Severity Score, CFB, Mean [2, 23]: −11.3 | CAPS-5 Total Severity Score, CFB, Median [2, 23]: −12.0 | CAPS-5 Total Severity Score, Actual, Mean [2, 24]: 22.0 | CAPS-5 Total Severity Score, Actual, Median [2, 24]: 23.0 | CAPS-5 Total Severity Score, CFB, Mean [2, 24]: −18.8 | CAPS-5 Total Severity Score, CFB, Median [2, 24]: −19.0 | CAPS-5 Total Severity Score, Actual, Mean [2, 25]: 15.9 | CAPS-5 Total Severity Score, Actual, Median [2, 25]: 14.0 | CAPS-5 Total Severity Score, CFB, Mean [2, 25]: −24.8 | CAPS-5 Total Severity Score, CFB, Median [2, 25]: −27.0 | CAPS-5 Total Severity Score, Actual, Mean [2, 26]: 39.4 | CAPS-5 Total Severity Score, Actual, Median [2, 26]: 38.5 | CAPS-5 Total Severity Score, Actual, Mean [2, 27]: 28.1 | CAPS-5 Total Severity Score, Actual, Median [2, 27]: 30.5 | CAPS-5 Total Severity Score, CFB, Mean [2, 27]: −11.3 | CAPS-5 Total Severity Score, CFB, Median [2, 27]: −12.0 | CAPS-5 Total Severity Score, Actual, Mean [2, 28]: 19.7 | CAPS-5 Total Severity Score, Actual, Median [2, 28]: 18.0 | CAPS-5 Total Severity Score, CFB, Mean [2, 28]: −19.8 | CAPS-5 Total Severity Score, CFB, Median [2, 28]: −22.0 | CAPS-5 Total Severity Score, Actual, Mean [2, 29]: 14.8 | CAPS-5 Total Severity Score, Actual, Median [2, 29]: 12.0 | CAPS-5 Total Severity Score, CFB, Mean [2, 29]: −24.5 | CAPS-5 Total Severity Score, CFB, Median [2, 29]: −27.0 | increase of AUC0-8 hr of paroxetine (20 mg) [3]: 3 fold | increase of Cmax of paroxetine (20 mg) [3]: 2.5 fold | permeability in human Caco-2 cells [4]: highly permeable | inhibition of BCRP [5]: not an inhibitor | IC50 [6]: 206 µM | Hill coefficient, hERG ([6]; human): 1.1 | margin of hERG IC50 over clinical plasma concentration ([6]; supratherapeutic single dose of 180 mg MDMA HCl): 111 x
